According to patent US20100137161A1, “METHOD OF GENERATING A PLATELET […] FOR AN INDIVIDUAL” (ROYAL COLLEGE OF SURGEONS IN IRELAND, priority 2006, published 2010):

Tested on: platelet rich plasma (PRP)
Assay: 96 well plate light transmission platelet aggregation assay, dose response to multiple agonists
Format: cell-based
Details: for platelet reactivity induced by the agonist (dose response curve): PRP of an inflamed rheumatoid arthritis patient, compared to the normal population (n=50), FIG. 3
Experimental: Healthy subjects who had not taken any antiplatelet medication in the 14 days prior to the study were recruited. Subjects refrained from intensive exercise and tobacco use for 4 hours prior to early morning phlebotomy. Blood was drawn from the antecubital fossa. The first 5 ml taken was discarded to avoid unwanted platelet activation and the next 27 ml of blood was collected in 3 ml of 3.2% sodium citrate anticoagulant. This blood citrate mixture was then centrifuged at 150 g for 10 min to recover the supernatant platelet rich plasma (PRP). The platelet concentration was measured using a Sysmex KX 21N.
A 96 well black isoplate with clear bottoms was used. Agonists were arranged in rows of Row 1—Arachidonic Acid (AA), Row 2—Collagen, Row 3—ADP, Row 4—Epinephrine, Row 5—Thrombin related activated peptide (TRAP) and Row 6 as a control row containing 4 wells of PRP and 4 wells of Platelet Poor Plasma (PPP). The remaining 6 rows maybe used for additional agonists or specific peptides as required.
Buffer A (6 mM Dextrose, 130 mM NaCl, 9 mM NaHCO3, 10 mM trisodium citrate, 10 mM Tris Base, 3 mM KCl, 0.81 mM KH2PO4, and 0.9 mM MgCl26H2O [pH7.4]) was added to wells 2-8 on each row using a 12 channel pipette. Row 1—10 μl of buffer A was inserted into well 2. Then 20 μl of buffer A was added to each of the wells 3-8 inclusive. Then 50 μl of AA (500 mg/ml stock) was inserted into well 1. 30 μl of AA was removed from well 1 and mixed with buffer A in well 2. 20 μl of the AA/buffer A was removed from well 2 and mixed in well 3. 20 μl is then removed from well 3 and mixed in well 4. This is repeated throughout the row up to and including well 8 with 20 μl left over and discarded. Row 2—Collagen (1.9 mg.ml stock) same process as Row 1. Row 3 & 5 ADP (Row 3) and TRAP (Row 5), wells 2-8 had 20 μl of buffer A placed into each. A quantity of 40 μl of ADP (200 μM stock) was placed into well 1. 20 μl of agonist was removed from well 1 and placed into well 2 where it was then mixed thoroughly with buffer A. This same process was then repeated across the plate with 20 μl left over after well 8. This was then discarded. The same process is repeated for Row 5—TRAP (200 μM stock). […]
The plate is then placed into a Wallac Victor 3 plate reader. The plate is read at time zero (T0) at absorbance 572 nm. […] T3 (3 minutes) read is taken and then shaking recommences until T9 (9 minutes) read. Further reads are taken at T15 (15 minutes) and T18 (18 minutes) with shaking in between each time-point. […]
The data is then normalised from the PPP and PRP absorbance values which represent minimum and maximum aggregation. […]

| Structure (SMILES) | platelet reactivity induced by the agonist (dose response curve) | inhibition of the COX pathway, arachidonic acid dose response curve (same male, visit 2, 4 weeks later, aspirin (soluble) 150 mg with clopidogrel 75 mg once daily, FIG. 7) |
| --- | --- | --- |
| CNC[C@H](O)c1ccc(O)c(O)c1 [Epinephrine] | excessive platelet reactivity |  |
| Nc1ncnc2c1ncn2[C@@H]1O[C@H](COP(=O)(O)OP(=O)(O)O)[C@@H](O)[C@H]1O [ADP] | excessive platelet reactivity |  |
| CC(=O)Oc1ccccc1C(=O)O [aspirin (soluble), aspirin] |  | clearly inhibited |
| CCCCC/C=C\C/C=C\C/C=C\C/C=C\CCCC(=O)O [Arachidonic Acid] | excessive platelet reactivity |  |
